These are literature values, as cited in PMC9669016, “First-in-human phase Ia study of the PI3Kα inhibitor CYH33 in patients with solid tumors” (Nature Communications, 2022).

Molecules are shown by their SMILES. Where “and” joins values, the source holds several entries; their conditions need not be identical. Equal entries are not always repeated.

Data set [1] relates to patients with PIK3CA-mutated HR+/HER2– breast cancer / PIK3CA-altered solid tumors. Conditions: cited from earlier work.
The subject of data set [2] is KYSE410, KYSE510, EC104, EC063, EC074 xenograft models. More on the design: method as in Investigator's Brochure (IB) 12. Conditions: 12.5 mg/kg; 9 values for 5 models, model column not assignable; ref Investigator's Brochure (IB) 12; listed as BYL-719; cited from earlier work.

Turning to `Cc1nc(NC(=O)N2CCC[C@H]2C(N)=O)sc1-c1ccnc(C(C)(C)C(F)(F)F)c1` [alpelisib], in data set [1], the frequency of diarrhea is listed as 57.7% and the incidence of rash is on record as 64.0%. In addition, in data set [1] (phase III SOLAR-1, alpelisib plus fulvestrant vs fulvestrant plus placebo, advanced PIK3CA-mutated HR+/HER2– breast cancer), the “improvement in median overall survival” value is recorded as 7.9 month. Moreover, in data set [1] (within the first 4–8 weeks of treatment), the “incidence of rash with prophylactic anti-rash medication” value is 24.6%. Besides, the “T/C% (tumor/control ratio)” value in data set [2] was 29.09% and 47.62%.
